Results on 64 compounds are retold here after a melting point compilation (Tetko et al.; mined from patent text by program, amines drawn as free bases though some values may be those of a salt).

Some results are limits rather than exact numbers.

In general, melting point refers to the temperature, or range, at which the solid turns liquid. `Cc1nc(C)c(Cl)c(NCc2nccc(SCCCN3CCNCC3)c2C)n1` displayed a melting point of 144 to 145 °C.
In the case of `Cc1cc(Nc2cc(-c3c(C)cccc3C)nc(Sc3ccc4ccccc4c3)n2)[nH]n1` it was 148 to 152 °C.
In the case of `CCOC(=O)CC1=C(O)c2sccc2S(=O)(=O)N1C` it was 161 to 163 °C.
In the case of `CCOC(=O)/C=C/c1cc(-n2cnnn2)cc(C)c1N` it was 210 to 211 °C.
Compound `CCOC(=O)c1c(C)nc(Cl)c([N+](=O)[O-])c1NC(C)(C)C` displayed a melting point of 35 to 36 °C.
In the case of `COc1nc2ccccc2nc1NC(=O)N1CCN(c2ccccc2C(C)C)CC1` it was 147 to 149 °C; in that of `Cc1[nH]c2ccccc2c1CCCN1CCC(C(=O)c2ccc(F)cc2)CC1`, 135 to 137 °C.
In the case of `Cc1nc(Cl)c(-c2ccc(Cl)cc2)c(NS(=O)(=O)c2ccc(Cl)cc2)n1` it was 196 to 197 °C; in that of `N#CCc1ccc(-c2nc3ccccc3o2)cc1N`, 198 to 199 °C; in that of `C=COCCOc1ccc(C=CC(=O)C=Cc2ccc(OCCOC=C)cc2)cc1`, 124 to 125 °C.
The compound `COC(=O)[C@H](Cc1ccc(NC(=S)NCCN2CCOCC2)cc1)NC(=O)[C@@H]1CCCN1S(=O)(=O)c1ccc(C)cc1` had a melting point of 158 to 168 °C.
`O=C1CCCc2cc(S(=O)(=O)c3ccccc3)ccc21` returned a melting point of 121 °C.
In the case of `NC1COc2ccccc2NC1=O` (centres undefined) it was 65 to 70 °C; in that of `CCC1(CC)c2cc(Br)ccc2-c2ccc(-c3nc4ccccc4s3)cc21`, 134 to 135 °C; in that of `COc1ccnc(CSc2nc3cc(OC(F)F)ccc3[nH]2)c1OC`, 104 to 108 °C.
In the case of `Cn1nc(C(F)(F)F)c(C(=O)O)c1N` it was 216 to 218 °C.
In the case of `O=C(NCCO)c1cc(-c2cccc3cc(Cc4cccc(C(F)(F)F)c4)sc23)ncc1F` it was 110 to 111 °C; in that of `CCC(=O)c1ccc(=O)[nH]c1C`, 173 to 175 °C; in that of `CC(C=O)c1ccc2cc(OCc3ccc4ccccc4n3)ccc2c1` (centres undefined), 113 to 115 °C.
`COc1ccc(-c2nnc3c4ccccc4c(N(C)CCCCl)nn23)cc1` came in with a melting point of 113 to 115 °C.
In the case of `CN(C)CCNCc1ccc(-c2cc3ncnc(Nc4ccc5[nH]ccc5c4)c3s2)cc1` it was 170 to 183 °C; in that of `c1cnc(N2CCN(Cc3ccc4ccccc4c3)CC2)nc1`, 109 to 110 °C; in that of `CCc1cc(Oc2c(Cl)cc(C(F)(F)F)cc2Cl)n[nH]1`, 118 to 121 °C.
Consider `Cc1ccc(CSc2nc3cc4c(cc3[nH]2)OCO4)nc1`, for which the melting point was in the range of 187 to 188 °C.
Regarding `CC(C)CC(C(=O)O)c1cc(OCC2CC2)c(-c2ccc3nonc3c2)cc1F` (centres undefined), the melting point was 110 to 111 °C.
In the case of `COc1cc(O)cc(OC)c1/C=C/S(=O)(=O)CS(=O)(=O)/C=C/c1c(OC)cc(O)cc1OC` it was 148 to 150 °C.
In the case of `CSc1cc(C(=O)C(C#N)C(=O)C2CC2)ccc1C` (centres undefined) it was 64.7 to 67.9 °C; in that of `N#CC1CN(c2c(F)cc3c(=O)c(C(=O)O)cn(C4CC4)c3c2F)C1`, over 325 °C; in that of `CCCCCCCCC(Cc1cccnc1)(C(=O)NO)S(=O)(=O)c1ccc(OC)cc1` (centres undefined), 62 °C.
In the case of `CCC(=O)Oc1c(OC)cc(C)c(C(=O)c2c(OC)ccc(Cl)c2C)c1OC` it was 150 to 151 °C.
`CCOC(=O)C1Cc2cc3ccccc3n2C1` (centres undefined) registered a melting point of 55 to 57 °C.
The compound `Cc1c(CC(=O)O)c2ccccc2c(=O)n1Cc1ccc(Cl)c(Cl)c1` displayed a melting point of 218 to 220 °C.
In the case of `O=CNCC1c2ccccc2C=Cc2ccccc21` it was 115 to 118 °C.
In the case of `COc1ccccc1Oc1c(Cl)nc(-c2ccccn2)nc1NS(=O)(=O)c1ccc(C(C)(C)C)cc1` it was 122 to 123 °C; in that of `COc1cc2c(cc1OC(C)=O)CCC1C3=CC=C(OC(C)=O)C3(C)CCC21` (centres undefined), 191 to 194 °C; in that of `C=CCn1nc(CCCC)c(Cc2ccc(-c3ccccc3-c3nnn[nH]3)cc2)c1COC`, 39 to 41 °C.
In the case of `O=c1ncc(I)cn1COc1ccc(Cl)cc1` it was 216 °C.
The compound `CC(=O)N[C@H]1CC[C@H](CCN2CCN(c3ncc(C)c4c3CCO4)CC2)CC1` gave a melting point of 196 °C.
For the compound `CCOC(=O)c1cc(N=c2sc(=O)n3n2CCCC3)c(Cl)cc1Cl`, the melting point fell in the range of 81 to 83 °C.
In the case of `OCCOc1ccc2cc[nH]c2c1` it was 74 to 77 °C; in that of `Cc1cc(C)nc(NC(=O)NS(=O)(=O)c2cccc3c2CCCC3)n1`, 152 to 155 °C; in that of `O=C1C=CC(O)(c2ccc3ccccc3c2)C=C1`, 137 °C.
In the case of `CCCCc1ccc(C(=O)Cc2ccc(Br)cc2)cc1` it was 129 to 131 °C; in that of `CCOCn1cc(C(C)C)c(=O)[nH]c1=O`, 78.4 °C; in that of `O=C(c1ccc2[nH]cnc2c1)N1CCC[C@H](c2nc(-c3ccc(F)cc3)no2)C1`, 110 to 115 °C.
In the case of `Oc1ccc(C2(c3ccc(O)cc3)CCCCCC2)cc1` it was 208 to 209 °C; in that of `CCOCc1nc(N)c2nc(C)cnc2n1`, 166 to 168 °C.
In turn, `CC(=O)N(C(C)=O)n1c(=O)[nH]c2ccccc2c1=O` registered a melting point of 210 °C.
`CCCCCC(=O)Nc1ccc(C(=O)NN=C2C(=O)Nc3ccc(I)cc32)cc1`: the melting point is 305 °C.
In the case of `O=C1Cc2c(Cl)cccc2Sc2ccc(F)cc21` it was 135 to 137 °C; in that of `Cc1cccc2c3c([nH]c12)CCNC3=O`, 300 to 302 °C.
`CC1Nc2ccccc2N(Cc2ccccc2)C(=O)C1C/C=C/c1ccccc1` (centres undefined) registered a melting point of 119 to 120 °C.
In the case of `Cc1ccc(N)cc1Nc1cc(-c2cncnc2)ccn1` it was 179 to 180 °C; in that of `CN(CCN(C)c1nc2ccccc2n1Cc1ccc(F)cc1)C(=O)OC(C)(C)C`, 182 to 185 °C.
In the case of `CS(=O)(=O)c1ccc(C(=O)Nc2ccc(Cl)c(-c3ncc(C(=O)NO)cn3)c2)c(Cl)c1` it was 170 to 172 °C; in that of `Cc1ccc(-c2ccc3c(c2)C=C(C(=O)O)CC3)cc1`, 230 to 231 °C; in that of `CC(C)(c1ccccc1)c1ccc2nc(-c3ccc(C(F)(F)F)cc3)oc(=O)c2c1`, 104 to 105 °C.
In the case of `CS(=O)(=O)c1ccc(-c2cnn(Cc3cccc([N+](=O)[O-])c3)c(=O)c2-c2ccc(F)cc2)cc1` it was 156 to 157 °C; in that of `COc1cc(Nc2nccc(N3CCC(O)CC3)n2)ccc1-n1cnc(C)c1`, 197 to 200 °C.
In turn, `Cc1ccc2cc(NC(=O)c3cccc(SCc4cnccn4)c3)ccc2n1` showed a melting point of 102 to 105 °C.
`CCOC(=O)C(Cc1ccc(OCCN2CCC(C)(C)c3cc(C(=NOC)c4ccccc4)ccc32)cc1)Oc1ccc(C(F)(F)F)cc1` (centres undefined) displayed a melting point of 44 to 46 °C.
In the case of `Cc1ccc(C#N)nc1` it was 72 to 74 °C; in that of `Cn1c(-c2nnc(Cc3ccc(F)cc3)o2)c(O)c(=O)c2ccccc21`, 222 °C.
In the case of `O=C(c1ccc(-c2ccc3nnn(Cc4ccc5ncccc5c4)c3n2)cc1)N1CCN(CCO)CC1` it was 158 to 160 °C.
